Source: patent publication US9630941B2 (priority 2008, dated 2017)

Tests used:
[1] = Aqueous solubility, pH dependent; type: physicochemical
[2] = Chemical stability pH dependent at 25° C.; type: physicochemical
Method: B. Chemical Stability pH Dependent at 25° C.

[3] = Thermal stability, 120° C. for 10 min; type: physicochemical; conditions: for CBN content of the sample after heating / Drug remaining / THC content of the sample after heating / Drug remaining (%): 120° C. for 10 min; for Drug remaining (%): % of initial; for CBN content of the sample, initial / Initial, μg (drug itself) / THC content of the sample, initial: before heating
Method: C. Thermal Stability—120° C. for 10 min.

[4] = Bioreversion: plasma stability, porcine plasma; type: in vitro ADME
[5] = Bioreversion: plasma stability, rabbit plasma; type: in vitro ADME
[6] = Porcine buccal tissue homogenate stability; type: in vitro ADME; conditions: protein concentration 2 mg/ml
Method: (§1) b. Porcine Buccal Tissue Homogenate Stability
(§2) Protein Concentration 2 mg/ml

[7] = Control (IPBS) stability for the buccal homogenate study; type: physicochemical
Method: as §1, §2

| SMILES | Aqueous Solubility ([1]; pH 1.2) | Aqueous Solubility ([1]; pH 2) | Aqueous Solubility ([1]; pH 3) | Aqueous Solubility ([1]; pH 4) | Aqueous Solubility ([1]; pH 5) | Aqueous Solubility ([1]; pH 6) | First order rate constant ([2]; Buffer pH 5.0, 25° C.) | First order rate constant ([2]; Buffer pH 7.0, 25° C.) | First order rate constant ([2]; Buffer pH 9.0, 25° C.) | First order rate constant ([2]; Water, 25° C.) | Drug loading (%) [3] | CBN content of the sample after heating [3] | Drug remaining [3] | THC content of the sample after heating [3] | Drug remaining (%) [3] | CBN content of the sample, initial [3] | Initial, μg (drug itself) [3] | THC content of the sample, initial [3] | K [4] | T1/2 [4] | other results |
| --- | --- | --- | --- | --- | --- | --- | --- | --- | --- | --- | --- | --- | --- | --- | --- | --- | --- | --- | --- | --- | --- |
| CCCCCc1cc(OC(=O)C(N)CC(C)C)c2c(c1)OC(C)(C)C1CCC(C)=CC21 (stereo not drawn) [THC-Leucinate (8), Δ^9-THC-leucinate] | 9.36 ± 0.11 µg/mL | 23.71 ± 0.40 µg/mL | 5.17 ± 0.60 µg/mL | 1.95 ± 0.09 µg/mL | 0.23 ± 0.03 µg/mL | 0.08 ± 0.01 µg/mL | 15.94 ± 3.38 ×10^−3 h^−1 | 85.91 ± 16.83 ×10^−3 h^−1 | 119.98 ± 33.51 ×10^−3 h^−1 | 8.51 ± 2.80 ×10^−3 h^−1 | 103.65 ± 4.12% | 20.27 ± 0.43 µg | 1383.29 ± 40.73 µg | 25.86 ± 0.83 µg | (88.99 ± 0.92) % | 16.34 ± 0.50 µg | 1554.80 ± 61.76 µg | -6.13 ± 0.84 µg | 42.70 ± 3.58 ×10^−2 min^−1 | 1.629 ± 0.137 min | Aqueous Solubility ([1]; pH 1.2, listed as THC-Leucine): 21.89 ± 0.26 µM; Aqueous Solubility ([1]; pH 2, listed as THC-Leucine): 55.46 ± 0.93 µM; Aqueous Solubility ([1]; pH 3, listed as THC-Leucine): 12.08 ± 1.40 µM; Aqueous Solubility ([1]; pH 4, listed as THC-Leucine): 4.33 ± 0.20 µM; Aqueous Solubility ([1]; pH 5, listed as THC-Leucine): 0.54 ± 0.06 µM; Aqueous Solubility ([1]; pH 6, listed as THC-Leucine): 0.19 ± 0.02 µM; K [5]: 33.84 ± 10.92 ×10^−2 min^−1; T1/2 [5]: 2.160 ± 0.697 min; K [6]: 22.98 ± 1.49 ×10^−3 min^−1; T1/2 [6]: 30.21 ± 1.95 min; K [7]: 5.49 ± 0.46 ×10^−3 min^−1 |
| CCCCCc1cc(OC(=O)C(N)C(C)C)c2c(c1)OC(C)(C)C1CCC(C)=CC21 (stereo not drawn) [THC-Valinate (6), Δ^9-THC-valinate] | 32.16 ± 0.27 µg/mL | 53.66 ± 10.30 µg/mL | 28.76 ± 0.14 µg/mL | 10.34 ± 0.53 µg/mL | 1.27 ± 0.25 µg/mL | 0.07 ± 0.00 µg/mL | 4.06 ± 0.01 ×10^−3 h^−1 | 47.13 ± 1.16 ×10^−3 h^−1 | 67.64 ± 7.67 ×10^−3 h^−1 | 23.70 ± 0.77 ×10^−3 h^−1 | 104.67 ± 2.22% | 8.79 ± 2.43 µg | 1440.57 ± 46.34 µg | 74.35 ± 5.26 µg | (91.80 ± 4.90) % | 8.27 ± 1.68 µg | 1570.09 ± 33.27 µg | 61.91 ± 9.49 µg | 91.16 ± 10.91 ×10^−2 min^−1 | 0.766 ± 0.092 min | Aqueous Solubility ([1]; H20): 0.05 µg/mL; Aqueous Solubility ([1]; pH 1.2, listed as THC-Valine): 78.23 ± 0.66 µM; Aqueous Solubility ([1]; pH 2, listed as THC-Valine): 147.35 ± 24.90 µM; Aqueous Solubility ([1]; pH 3, listed as THC-Valine): 69.78 ± 0.33 µM; Aqueous Solubility ([1]; pH 4, listed as THC-Valine): 24.10 ± 1.28 µM; Aqueous Solubility ([1]; pH 5, listed as THC-Valine): 3.51 ± 0.62 µM; Aqueous Solubility ([1]; pH 6, listed as THC-Valine): 0.17 ± 0.00 µM; K [5]: 61.94 ± 6.01 ×10^−2 min^−1; T1/2 [5]: 1.124 ± 0.109 min; K [6]: 16 ± 0.19 ×10^−3 min^−1; T1/2 [6]: 43.30 ± 0.51 min; K [7]: 3.66 ± 0.68 ×10^−3 min^−1 |
